From the supplement of paper PMC10883282

Assays:
Assay in all cases: relative viability vs DMSO control (72 h) (fraction); higher = more viable cells
SYO-1 = test system: SYO-1
How it was run: (§1)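 Sarcoma cell lines were plated in 384 wells to reach 80–90% confluence, treated after 24 h with 2.5 µl of serially diluted compound and held 72 h at 37 °C, 5% CO2. Relative viability was taken as percent growth from ATPLite readings, averaged over up to triplicate wells. The values were rescaled so that 1 marks full and 0 marks none.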

RD = test system: RD
How it was run: as §1

SW684 = test system: SW684
How it was run: as §1

SW872 = test system: SW872
How it was run: as §1

HS729 = test system: HS729
How it was run: as §1

SW1353 = test system: SW1353
How it was run: as §1

KHOS-NP = test system: KHOS-NP
How it was run: as §1

G401 = test system: G401
How it was run: as §1

HT1080 = test system: HT1080
How it was run: as §1

RD-ES = test system: RD-ES
How it was run: as §1

SK-LMS-1 = test system: SK-LMS-1
How it was run: as §1

KHOS-240S = test system: KHOS-240S
How it was run: as §1

CNC(=O)c1nnc(NC(=O)C2CC2)cc1Nc1cccc(-c2ncn(C)n2)c1OC
Settings | relative viability
G401, 0.00017 µM | 1
G401, 0.00051 µM | 0.988
G401, 0.00152 µM | 1.03
G401, 0.00457 µM | 1.03
G401, 0.01372 µM | 1.074
G401, 0.04115 µM | 1.02
G401, 0.1235 µM | 1.04
G401, 0.3704 µM | 1.031
G401, 1.111 µM | 1.013
G401, 3.333 µM | 0.999
G401, 10 µM | 0.906
HS729, 0.00017 µM | 0.934
HS729, 0.00051 µM | 0.925
HS729, 0.00152 µM | 0.869
HS729, 0.00457 µM | 0.885
HS729, 0.01372 µM | 0.9
HS729, 0.04115 µM | 0.931
HS729, 0.1235 µM | 0.906
HS729, 0.3704 µM | 0.8552
HS729, 1.111 µM | 0.86
HS729, 3.333 µM | 0.84
HS729, 10 µM | 0.761
HT1080, 0.00017 µM | 1.07
HT1080, 0.00051 µM | 1.04
HT1080, 0.00152 µM | 1.05
HT1080, 0.00457 µM | 1.03
HT1080, 0.01372 µM | 1.02
HT1080, 0.04115 µM | 1.05
HT1080, 0.1235 µM | 1.01
HT1080, 0.3704 µM | 1.042
HT1080, 1.111 µM | 1.1
HT1080, 3.333 µM | 1.11
HT1080, 10 µM | 0.995
KHOS-240S, 0.00017 µM | 1.08
KHOS-240S, 0.00051 µM | 1.07
KHOS-240S, 0.00152 µM | 1.059
KHOS-240S, 0.00457 µM | 1.05
KHOS-240S, 0.01372 µM | 1.07
KHOS-240S, 0.04115 µM | 1.04
KHOS-240S, 0.1235 µM | 1.06
KHOS-240S, 0.3704 µM | 1.07
KHOS-240S, 1.111 µM | 1.08
KHOS-240S, 3.333 µM | 1.06
KHOS-240S, 10 µM | 1.03
KHOS-NP, 0.00017 µM | 1.07
KHOS-NP, 0.00051 µM | 1.08
KHOS-NP, 0.00152 µM | 1.063
KHOS-NP, 0.00457 µM | 1.06
KHOS-NP, 0.01372 µM | 1.07
KHOS-NP, 0.04115 µM | 1.076
KHOS-NP, 0.1235 µM | 1.08
KHOS-NP, 0.3704 µM | 1.07
KHOS-NP, 1.111 µM | 1.061
KHOS-NP, 3.333 µM | 1.09
KHOS-NP, 10 µM | 1.05
RD, 0.00017 µM | 1.1
RD, 0.00051 µM | 1.11
RD, 0.00152 µM | 1.12
RD, 0.00457 µM | 1.12
RD, 0.01372 µM | 1.1
RD, 0.04115 µM | 1.09
RD, 0.1235 µM | 1.11
RD, 0.3704 µM | 1.08
RD, 1.111 µM | 1.1
RD, 3.333 µM | 1.09
RD, 10 µM | 0.994
RD-ES, 0.00017 µM | 0.987
RD-ES, 0.00051 µM | 1.019
RD-ES, 0.00152 µM | 1.01
RD-ES, 0.00457 µM | 0.988
RD-ES, 0.01372 µM | 1.02
RD-ES, 0.04115 µM | 1.02
RD-ES, 0.1235 µM | 1.05
RD-ES, 0.3704 µM | 1.06
RD-ES, 1.111 µM | 1
RD-ES, 3.333 µM | 0.998
RD-ES, 10 µM | 0.847
SK-LMS-1, 0.00017 µM | 1.09
SK-LMS-1, 0.00051 µM | 1.09
SK-LMS-1, 0.00152 µM | 1.06
SK-LMS-1, 0.00457 µM | 1.08
SK-LMS-1, 0.01372 µM | 1.1
SK-LMS-1, 0.04115 µM | 1.06
SK-LMS-1, 0.1235 µM | 1.08
SK-LMS-1, 0.3704 µM | 1.06
SK-LMS-1, 1.111 µM | 1.05
SK-LMS-1, 3.333 µM | 1.06
SK-LMS-1, 10 µM | 0.797
SW684, 0.00017 µM | 1.16
SW684, 0.00051 µM | 1.15
SW684, 0.00152 µM | 1.18
SW684, 0.00457 µM | 1.15
SW684, 0.01372 µM | 1.17
SW684, 0.04115 µM | 1.17
SW684, 0.1235 µM | 1.18
SW684, 0.3704 µM | 1.2
SW684, 1.111 µM | 1.15
SW684, 3.333 µM | 1.14
SW684, 10 µM | 1.12
SW872, 0.00017 µM | 1.01
SW872, 0.00051 µM | 1
SW872, 0.00152 µM | 0.995
SW872, 0.00457 µM | 1.026
SW872, 0.01372 µM | 1.01
SW872, 0.04115 µM | 1.02
SW872, 0.1235 µM | 1.03
SW872, 0.3704 µM | 1.02
SW872, 1.111 µM | 1.02
SW872, 3.333 µM | 0.957
SW872, 10 µM | 0.768
SW1353, 0.00017 µM | 0.962
SW1353, 0.00051 µM | 0.988
SW1353, 0.00152 µM | 0.968
SW1353, 0.00457 µM | 1
SW1353, 0.01372 µM | 0.985
SW1353, 0.04115 µM | 0.982
SW1353, 0.1235 µM | 0.978
SW1353, 0.3704 µM | 0.964
SW1353, 1.111 µM | 0.948
SW1353, 3.333 µM | 0.9937
SW1353, 10 µM | 0.911
SYO-1, 0.00017 µM | 0.958
SYO-1, 0.00051 µM | 0.969
SYO-1, 0.00152 µM | 0.924
SYO-1, 0.00457 µM | 0.937
SYO-1, 0.01372 µM | 0.952
SYO-1, 0.04115 µM | 0.935
SYO-1, 0.1235 µM | 0.924
SYO-1, 0.3704 µM | 0.888
SYO-1, 1.111 µM | 0.928
SYO-1, 3.333 µM | 0.983
SYO-1, 10 µM | 0.918
